Test results published in ChEMBL document CHEMBL5113378, “Role of basic aminoalkyl chains in the lead optimization of Indoloquinoline alkaloids” (Eur J Med Chem, 2022).
pIC50: −log10 of the molar value. Values belong to the molecule of their own block, whether it stands above or below them.

Columns and labels:
[1] = tested on: Plasmodium berghei; experiment: Antimalarial activity against Plasmodium berghei NK65 infected in Webster Swiss mouse assessed as parasite growth inhibition at 50 mg/kg/day, po for 5 days by geimsa dye based microscopy relative to control; format: functional; set-up: scale not given: the % may be the effect or the level left; conditions: time 5 day
[2] = Selectivity index, ratio of IC50 for rat L6 cells to IC50 for Plasmodium falciparum NF54; format: toxicity; conditions: read-out: Ratio IC50
[3] = Selectivity index, ratio of IC50 for human MRC5 to IC50 for Plasmodium falciparum Ghana; format: toxicity; conditions: MRC5 cells, read-out: Ratio IC50
[4] = tested on: Hemozoin; experiment: Inhibition of beta-hematin formation
[5] = target: DNA; experiment: Binding affinity to DNA (unknown origin) assessed as DNA intercalation by measuring amount of methyl green by spectrophotometry; format: nucleic-acid assay, Homo sapiens
[6] = Selectivity index, ratio of IC50 for rat L6 cells to IC50 for Plasmodium falciparum K1; format: toxicity; conditions: read-out: Ratio IC50
[7] = tested on: SK-OV-3; experiment: Cytotoxicity against human SK-OV-3 cells assessed as cell growth inhibition; format: functional, cell-based
[8] = tested on: CH1; experiment: Cytotoxicity against human CH1 cells assessed as cell growth inhibition; format: functional, cell-based
[9] = tested on: A2780; experiment: Cytotoxicity against drug resistant human A2780 cells assessed as cell growth inhibition; format: functional, cell-based
[10] = tested on: CH1; experiment: Cytotoxicity against drug resistant human CH1 cells assessed as cell growth inhibition; format: functional, cell-based
[11] = target: T1, Telomerase reverse transcriptase (Homo sapiens, UniProt O14746); experiment: Inhibition of telomerase derived from human K562 cell extract incubated for 30 mins by TRAP assay; format: cell-free
T1 sequence (O14746 whole entry): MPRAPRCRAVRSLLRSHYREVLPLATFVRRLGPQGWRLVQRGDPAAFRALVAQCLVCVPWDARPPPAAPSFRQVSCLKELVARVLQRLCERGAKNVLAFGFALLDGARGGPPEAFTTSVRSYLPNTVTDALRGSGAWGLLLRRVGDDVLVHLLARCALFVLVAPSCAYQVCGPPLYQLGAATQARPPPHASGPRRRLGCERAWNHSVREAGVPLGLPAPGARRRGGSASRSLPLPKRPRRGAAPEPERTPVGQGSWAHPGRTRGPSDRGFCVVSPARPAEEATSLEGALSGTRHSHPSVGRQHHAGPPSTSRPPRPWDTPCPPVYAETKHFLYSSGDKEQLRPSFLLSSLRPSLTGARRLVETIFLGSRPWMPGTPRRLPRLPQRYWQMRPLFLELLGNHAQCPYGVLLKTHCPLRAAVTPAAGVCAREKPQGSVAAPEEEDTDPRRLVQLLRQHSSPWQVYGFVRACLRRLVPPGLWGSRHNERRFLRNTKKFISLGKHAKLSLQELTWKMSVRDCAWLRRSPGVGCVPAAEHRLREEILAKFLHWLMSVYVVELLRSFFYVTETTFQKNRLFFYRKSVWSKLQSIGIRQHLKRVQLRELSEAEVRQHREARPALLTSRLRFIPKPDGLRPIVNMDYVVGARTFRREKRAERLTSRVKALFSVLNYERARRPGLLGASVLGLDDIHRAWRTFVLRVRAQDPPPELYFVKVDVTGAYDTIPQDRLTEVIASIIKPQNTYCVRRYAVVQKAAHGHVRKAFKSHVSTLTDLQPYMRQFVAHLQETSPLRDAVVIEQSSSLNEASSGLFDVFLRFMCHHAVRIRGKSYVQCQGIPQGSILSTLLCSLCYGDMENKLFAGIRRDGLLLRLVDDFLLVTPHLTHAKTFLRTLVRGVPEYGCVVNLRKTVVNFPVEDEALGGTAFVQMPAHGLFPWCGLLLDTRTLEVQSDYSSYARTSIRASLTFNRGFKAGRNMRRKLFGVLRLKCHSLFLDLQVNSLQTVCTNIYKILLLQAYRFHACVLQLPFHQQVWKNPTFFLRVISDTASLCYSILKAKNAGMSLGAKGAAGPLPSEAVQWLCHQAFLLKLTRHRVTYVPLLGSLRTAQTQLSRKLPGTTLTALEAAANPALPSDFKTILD

[12] = tested on: A2780; experiment: Cytotoxicity against human A2780 cells assessed as cell growth inhibition; format: functional, cell-based
[13] = tested on: Plasmodium falciparum; experiment: Antimalarial activity against multi-drug resistant Plasmodium falciparum K1 assessed as parasite growth inhibition by microdilution method; format: functional, organism-based
[14] = tested on: SK-HEP1; experiment: Antiproliferative activity against human SK-HEP1 cells assessed as cell growth inhibition; format: functional, cell-based
[15] = tested on: HCT-116; experiment: Antiproliferative activity against human HCT-116 cells assessed as cell growth inhibition; format: functional, cell-based
[16] = tested on: Plasmodium falciparum; experiment: Antimalarial activity against chloroquine/mefloquine resistant Plasmodium falciparum clinical isolates assessed as parasite growth inhibition incubated for 24 hrs by microtechnique method; format: functional, organism-based
[17] = tested on: K562; experiment: Antiproliferative activity against human K562 cells assessed as cell growth inhibition; format: functional
[18] = tested on: SR; experiment: Antiproliferative activity against human SR cells assessed as cell growth inhibition; format: functional
[19] = tested on: RPMI-8226; experiment: Antiproliferative activity against human RPMI-8226 cells assessed as cell growth inhibition; format: functional
[20] = tested on: HL-60; experiment: Antiproliferative activity against human HL-60 cells assessed as cell growth inhibition; format: functional
[21] = tested on: MOLT-4; experiment: Antiproliferative activity against human MOLT-4 cells assessed as cell growth inhibition; format: functional
[22] = tested on: HeLa; experiment: Antiproliferative activity against human HeLa cells assessed as cell growth inhibition; format: functional, cell-based
[23] = tested on: A549; experiment: Antiproliferative activity against human A549 cells assessed as cell growth inhibition; format: functional, cell-based
[24] = tested on: DU-145; experiment: Antiproliferative activity against human DU-145 cells assessed as cell growth inhibition; format: functional
[25] = tested on: MCF7; experiment: Antiproliferative activity against human MCF7 cells assessed as cell growth inhibition; format: functional, cell-based
[26] = Antiproliferative activity against […] LLTC cells assessed as cell growth inhibition incubated for 4 days by sulphorhodamine assay; format: functional, cell-based; conditions: LLTC cell line, 96 h
[27] = tested on: Jurkat; experiment: Antiproliferative activity against human Jurkat cells assessed as cell growth inhibition incubated for 4 days by sulphorhodamine assay; format: functional, cell-based; conditions: 96 h
[28] = tested on: P388; experiment: Antiproliferative activity against mouse P388 cells assessed as cell growth inhibition by measuring [3H]TdR uptake incubated for 3 days; format: functional, cell-based
[29] = tested on: Plasmodium falciparum; experiment: Antimalarial activity against Plasmodium falciparum K1 assessed as parasite growth inhibition; format: functional, organism-based
[30] = Cytotoxicity against rat L6 cells assessed as cell growth inhibition; format: toxicity, cell-based
[31] = tested on: Plasmodium falciparum; experiment: Antimalarial activity against Plasmodium falciparum NF54 assessed as parasite growth inhibition; format: functional, organism-based
[32] = tested on: Plasmodium falciparum; experiment: Antimalarial activity against chloroquine/pyrimethamine resistant Plasmodium falciparum K1 assessed as parasite growth inhibition by measuring [3H]-hypoxanthine incubated for 24 hrs; format: functional, organism-based
[33] = tested on: Hemozoin; experiment: Inhibition of detergent-mediated beta-hematin formation incubated for 6 hrs by multiwell plate reader analysis
[34] = Selectivity index, ratio of CC50 for human Huh-7 cells to IC50 for Plasmodium falciparum 3D7; format: toxicity; conditions: read-out: Ratio CC50/IC50
[35] = tested on: Plasmodium falciparum; experiment: Antimalarial activity against Plasmodium falciparum 3D7 assessed as parasite growth inhibition incubated for 48 hrs by SYBR green dye based fluorescence assay; format: functional, organism-based; conditions: 3D7, 48 h
[36] = tested on: Plasmodium falciparum; experiment: Antimalarial activity against Plasmodium falciparum INDO assessed as parasite growth inhibition incubated for 48 hrs by SYBR green dye based fluorescence assay; format: functional, organism-based
[37] = tested on: Plasmodium falciparum; experiment: Antimalarial activity against Plasmodium falciparum Dd2 assessed as parasite growth inhibition incubated for 48 hrs by SYBR green dye based fluorescence assay; format: functional, organism-based; conditions: Dd2, 48 h
[38] = tested on: Plasmodium berghei; experiment: Antimalarial activity against Plasmodium berghei ANKA infected in BALB/c mouse assessed as parasite growth inhibition at 50 mg/kg, po administered for 4 consecutive days measured for 7 to 13 days by geimsa dye based microscopy relative to control; format: functional; set-up: scale not given: the % may be the effect or the level left; conditions: time 7-13 day
[39] = tested on: Trypanosoma brucei; experiment: Antitrypanosomal activity against Trypanosoma brucei assessed as parasite growth inhibition; format: functional, organism-based
[40] = target: T1, Telomerase reverse transcriptase; experiment: Inhibition of telomerase derived from human A2780 cell extract by TRAP assay; format: cell-free
[41] = tested on: MOLT-3; experiment: Antiproliferative activity against human MOLT-3 cells assessed as cell growth inhibition; format: functional, cell-based
[42] = tested on: Plasmodium falciparum; experiment: Antimalarial activity against Plasmodium falciparum K1 […] assessed as parasite growth inhibition; format: functional, organism-based
[43] = Selectivity index, ratio of CC50 for rat L6 cells to IC50 for Plasmodium falciparum K1 […]; format: toxicity, cell-based; conditions: read-out: Ratio CC50/IC50

pIC50 [14]: 7.05
SMILES: c1ccc2c(c1)nc(NCCCNCCCNc1nc3ccccc3c3[nH]c4ccccc4c13)c1c3ccccc3[nH]c21

pIC50 [15]: 6.52
SMILES: CNCCCNc1c2ccccc2nc2c1[nH]c1ccccc12

GI50 [17]: 0.42 µM
GI50 [19]: 0.14 µM
GI50 [20]: 0.11 µM
GI50 [21]: 0.09 µM
SMILES: COc1ccc(Nc2c3c4ccccc4nc-3n(C)c3ccccc23)cc1
GI50 [18]: 0.19 µM

GI50 [22]: 10.3 µM
GI50 [23]: 7.2 µM
GI50 [24]: 20.7 µM
GI50 [25]: 9.7 µM
SMILES: Cn1c2ccccc2c2c(C(=O)NC3CCCCC3)c3cc(Cl)ccc3nc21

pIC50 [4]: 4.77
SMILES: NCCCNc1c2ccccc2nc2c1[nH]c1ccccc12
selectivity ratio [2]: 16

pIC50 [27]: 7.26
pIC50 [28]: 7.70
SMILES: Cc1cccc2c1c1nc3c(C(=O)NCCN(C)C)cccc3cc1n2C
pIC50 [26]: 7.74

pIC50 [4]: 3.20
SMILES: CN(C)CCNc1nc2ccccc2c2[nH]c3ccccc3c12
pIC50 [29]: 7.08
pIC50 [30]: 6.20
selectivity ratio [6]: 7.6
pIC50 [31]: 7.86
selectivity ratio [2]: 45.8

pIC50 [33]: 3.08
SMILES: O=C(NCCN1CCCCC1)c1c2cc(Br)ccc2nc2c1[nH]c1ccccc12
selectivity ratio [34]: 46.9
pIC50 [35]: 5.89
pIC50 [36]: 5.30
pIC50 [37]: 5.20
Activity [38]: 27%

GI50 [17]: 1.84 µM
GI50 [19]: 1.08 µM
GI50 [21]: 0.32 µM
SMILES: Cn1c2nc3ccccc3c-2c(Nc2ccccc2)c2ccccc21

pIC50 [39]: 6.23
SMILES: Cn1c2nc3ccccc3c-2c(NCCCNC(=S)Nc2ccccc2)c2ccccc21
selectivity ratio [6]: 11
selectivity ratio [2]: 135

pIC50 [40]: 5.20
SMILES: c1cc2nc3c(cc2cc1CCCN1CCCC1)[nH]c1ccc(CCCN2CCCC2)cc13

pIC50 [4]: 4.70
SMILES: Cn1c2nc3ccccc3c-2c(NCC(C)(C)CNC(=S)Nc2ccccc2)c2ccccc21
pIC50 [30]: 5.14
pIC50 [31]: 7.24
selectivity ratio [2]: 126

pIC50 [40]: 4.93
SMILES: c1cc2nc3c(cc2cc1CCCN1CCCCC1)[nH]c1ccc(CCCN2CCCCC2)cc13

Further lines, the molecule ahead of its results:

SMILES: C[n+]1c2ccccc2c(NC2CCNCC2)c2[nH]c3ccccc3c21
Activity [1]: 55%

SMILES: Cn1c2nc3ccccc3c-2c(NCCCN)c2ccccc21
selectivity ratio [2]: 3.5

SMILES: Cn1c2nc3ccccc3c-2cc2ccccc21 [NEOCRYPTOLEPINE]
selectivity ratio [3]: 0.4
pIC50 [4]: 5.22
pIC50 [5]: 4.03
selectivity ratio [6]: 1.9
selectivity ratio [2]: 2

SMILES: c1ccc2nc3c(cc2c1)[nH]c1ccccc13 [QUINDOLINE]
pIC50 [7]: 4.18
pIC50 [8]: 4.81
pIC50 [9]: 4.61
pIC50 [10]: 4.52
pIC50 [11]: < 3.86
pIC50 [12]: 4.67
pIC50 [13]: < 3.64

SMILES: COC(=O)c1ccc2nc3n(C)c4ccccc4c(NCCCN)c-3c2c1
pIC50 [4]: 4.31
selectivity ratio [6]: 7.2

SMILES: COc1cc2c(cc1CN(C)CCCN(C)C)[nH]c1c3ccc(Cl)cc3ncc21
pIC50 [16]: 9.72

SMILES: CN(C)CCc1ccc2nc3c4ccccc4n(CCN(C)C)c3cc2c1
pIC50 [8]: 5.08
pIC50 [9]: 4.98
pIC50 [10]: 4.90
pIC50 [12]: 4.90

SMILES: COc1cc2c(cc1CN1CCC(N3CCCCC3)CC1)[nH]c1c3ccc(Cl)cc3ncc21
pIC50 [32]: 7.30

SMILES: OCCCNc1c2ccccc2nc2c1[nH]c1ccccc12
pIC50 [11]: 5.81

SMILES: Cn1cc2c3ccccc3nc-2c2ccccc21 [ISOCRYPTOLEPINE]
pIC50 [41]: 6.14
pIC50 [42]: 6.11
selectivity ratio [43]: 1.8
